Measured values as given in patent publication US20220378739A1, “NATURAL KILLER CELL IMMUNOTHERAPY FOR THE TREATMENT OF GLIOBLASTOMA AND OTHER CANCERS” (BOARD OF REGENTS, THE UNIVERSITY OF TEXAS SYSTEM, priority 2019, published 2022).
“Also recorded” adds a separate entry of the source.

Assays:
[1] = tested on: TGF-β1 Smad⅔ signaling pathway in NK cells; test: Phospho-Smad⅔ assay in NK cells co-cultured with GSCs; type: cell-based, human; details: for p-Smad⅔ expression (MFI) in NK cells co-cultured with GSCs: healthy control NK cells + GSCs, inhibitor 10 μM
Method: (§1) GSCs and purified NK cells were co-cultured for 48 hours in the presence of anti-TGFβ 123 (5 μg/ml) (R&D), HLA-ABC blocking antibody (clone W 6/32, Biolegend), CD44 blocking antibody (clone IM7, Biolegend), ILT-2 (CD85J) blocking antibody (clone HP-F1, ThermoFisher), CD155 blocking antibody (clone D171, GenTex), CD112 blocking antibody (clone TX31, Biolegend), 10 μM LY2109761, 10 μM galunisertib (LY2157299), 10 μM Cilengitide (Cayman Chemical) or 1 μM MMP-2/MMP-9 inhibitor I (Millipore). Cytotoxicity assays were then performed as described above.
NK cells were stained with Live/dead-aqua and CD56 ECD (Beckman Coulter) for 20 min in the dark at RT, washed with PBS fixed for 10 min in the dark. After one wash, the cells were permeabilized (Beckman Coulter kit) and stained with p-(5465/5467)-Smad2/p-(5423/5425)/Smad3-Alexa 647 mAb Phosflow antibody (BD Biosciences) for 30 minutes at room temperature. Cells incubated with 10 ng/ml recombinant TGF-β for 45 minutes in 37° C. were used as positive control.

GSC targets = test: NK cell functional assay (51Cr release; CD107a, IFN-γ, TNF-α) against GSC targets after co-culture with GSCs; type: cell-based, human; details: 48 hours co-culture with GSCs 1:1; inhibitor 10 μM
Method: (§2) NK cells were co-cultured for 5 hours with K562 or GSCs target cells at an optimized effector:target ratio of 5:1 together with CD107a PE-CF594 (BD Biosciences), monensin (BD GolgiStopTM) and BFA (Brefeldin A, Sigma Aldrich). NK cells were incubated without targets as the negative control and stimulated with PMA (50 ng/mL) and ionomycin ([…], Sigma Aldrich) as positive control. Cells were collected, washed and stained with surface antibodies (mentioned above), fixed/permeabilized (BD Biosciences) and stained with IFN-7 v450 and TNF-α Alexa700 (BD Biosciences) antibodies.
(§3) NK cell cytotoxicity was assessed using chromium (siCr) release assay. Briefly, K562 or GSCs target cells were labeled with siCr (PerkinElmer Life Sciences, Boston, Mass.) at 50 μCi/5×10^5 cells for 2 hours. ^51Cr-labeled K562/GSC targets (5×105) were incubated for 4 h with serially diluted magnetically isolated NK cells in triplicate. Supernatants were then harvested and analysed for ^51Cr content.
For studies of NK cell suppression by GSCs and human astrocytes, magnetically selected healthy NK cells were cultured in Serum-free Stem Cell Growth Medium (SCGM; CellGro/CellGenix) supplemented with 5% glutamine, 5 μM HEPES (both from GIBCO/Invitrogen), and 10% FCS (Biosera) in 96-well flat-bottomed plates (Nunc) at 100,000/100D11. […]

K562 targets = type: cell-based, human; details: 48 hours
Method: as §2, §3
For studies of NK cell suppression by GSCs and human astrocytes, magnetically selected healthy NK cells were cultured in Serum-free Stem Cell Growth Medium (SCGM; CellGro/CellGenix) supplemented with 5% glutamine, 5 μM HEPES (both from GIBCO/Invitrogen), and 10% FCS (Biosera) in 96-well flat-bottomed plates (Nunc) at 100,000/100D11. NK cells were co-cultured either alone (positive control) or with GSCs or astrocytes at a 1:1 ratio for 48 hours at 37° C. before performing functional assays to assess NK cells cytotoxicity.
as §1

soluble TGF-β1 = test: TGF-β ELISA of NK cell/GSC co-culture supernatant; type: cell-based, human; details: NK cells + GSCs, cilengitide 10 μM, 48 hours
Method: NK cells and GSCs were either co-cultured or cultured alone for 48 hours in serum free SCGM growth medium. After 48 hours, supernatants were collected and secretion of TGF R and MMP2/3/9 was assessed in the supernatant by TGFβ1 ELISA kit (R&D systems) or MMP2/3/9 luminex kit (eBiosciences) as per the manufacturer's protocol.

patient-derived GSCs = test: Xenogeneic (PDX) NSG mouse model of GBM; type: in vivo
Method: To test this prediction, a PDX mouse model of patient-derived GSC was used, in which, ffLuc+ patient-derived GSCs (0.5×10^6) were stereotactically implanted on day 0 through a guide-screw into the right forebrain of NOD/SCID/IL2Rγc null mice (n=4-5 per group). After 7 days, the mice were treated intratumorally with 2.0×10^6 human NK cells every 7 days for 11 weeks (FIG. 5A) with either galunisertib to block the TGF-β signaling or cilengitide to block the integrin pathway. Galunisertib was administered five times a week by oral gavage and cilengitide three times a week by intraperitoneal injection. Animals implanted with tumor that were either untreated or received NK cells alone, galunisertib alone or cilengitide alone served as controls.
To assess the anti-tumor effect of NK cells against GSCs in vivo, a NOD/SCID IL-2R7null (NSG) human xenograft model (Jackson Laboratories, Bar Harbor, Me.) was used. Intracranial implantation of GSCs into male mice was performed as previously described^55. A total of 60 mice were used. 0.5×10^5 GSCs were implanted intracranially into the right frontal lobe of 5 week old NSG mice using a guide-screw system implanted within the skull. To increase uniformity of xenograft uptake and growth, cells were injected into 10 animals simultaneously using a multiport Microinfusion Syringe Pump (Harvard Apparatus, Holliston, Mass.). Animals were anesthetized with xylazine/ketamine during the procedure. For in vivo bioluminescent imaging, GSCs were engineered to express luciferase by lentivirus transduction. Kinetics of tumor growth was monitored using weekly bioluminescence imaging (BLI; Xenogen-IVIS 200 Imaging system; Caliper, Waltham, Mass.). Signal quantitation in photons/second (p/s) was performed by determining the photon flux rate within standardized regions of interest (ROI) using Living Image software (Caliper). […] expanded donor peripheral blood NK cells^56 were injected intracranially via the guide-screw at day 7 post tumor implantation, and then every 7 days for 11 weeks. Mice were treated with either cilengitide or galunisertib (both from MCE Med Chem Express, Monmouth Junction, NJ) in the presence or absence of intracranial NK cell injection. Cilengitide was administered intraperitoneally 3 times a week starting at day 1 (250 μg/100 μl PBS) while galunisertib was administered orally (75 mg/kg) by gavage 5 days a week starting at day 1 (see FIG. 5A). […]
Brain tissue specimens from untreated control mice, mice treated with either NK cells alone, cilengitide alone, galunisertib alone or with combination therapy of NK+ cilengitide or NK+ galunisertib were collected. […] Sections lacking tumor were also evaluated for evidence of meningoencephalitis using a Leica DM 2500 light microscope by a board-certified veterinary pathologist. […]

[2] = tested on: NKG2D, CD9, CD103 on TiNKs; test: Flow cytometry of TiNKs extracted from mouse brain tumor; type: in vivo, mouse (NSG)
Description: FIG. 20. […] Heat map representation of the surface markers NKG2D, CD9, CD103, PD-1 and CD69. Once the mice were sacrificed, the brain tissue was processed and TiNKs were extracted from the GBM tumor. The cells we then stained for the indicated surface markers and analyzed using flow cytometry. The expression is presented as percentage of the cells expressing each marker within the total NK cell population.
Brain tissue from the animals was collected and NK cells were isolated using a percoll (GE Healthcare) gradient fallowing protocol described by Pino et al^57. Briefly, brain tissue was dissociated using a 70 μm cell strainer (Life Science, Durham, N.C.). Cell suspension was re suspended in a 30% isotonic percoll solution and layer on top of a 70% isotonic percoll solution. Cells were centrifuged at 500 G for 30 minutes and 18 °C with no brake. 2-3 ml of the 70%-30% interface was collected in a clean tube and washed with PBS 1X. After this procedure, cells were ready for immunostaining with mouse CD45, human CD45, CD56, CD3, CD103, CD9, CD69, PD-1 and NKG2D all from Biolegend.

[3] = tested on: TiNKs / HC-NK cells rendered dysfunctional by GSCs; test: Reversal of established NK cell dysfunction (TiNKs ex vivo; NK cell recovery assays); type: cell-based, human
Method: FIGS. 11A-11G. […] (FIG. 11A) NK cells were incubated with or without galunisertinib (10 μM) or LY2109761 (10 μM) for 48 hours. Representative zebra plots show their CD107a, IFN-γ, and TNF-α response to K562 targets. NK cells were gated on CD3-CD56+ lymphocytes. Inset numbers are the percentages of CD107a-, IFN-γ- or TNF-α-positive NK cells within the gated NK cell population. (FIGS. 11B-11C) NK cells were cultured either alone or with GSCs in a 1:1 ratio with or without LY2109761 or galunisertib for 48 hrs. Representative zebra plots and summary box plots show their CD107, IFN-γ, and TNF-α expression response to K562 (FIG. 11B) or GSC (FIG. 11C) targets. Effector:target ratio is 5:1. NK cells were defined as CD3-CD56+ lymphocytes. Inset numbers are the percentages of CD107a-, IFN-γ- or TNF-α-positive NK cells (n=7, n=4 respectively). (FIG. 11D) TiNK cells were cultured for 24 hours in media with 5 ng/ml IL-15 with or without galunisertib. Representative zebra plots and bar graph summary show their CD107, IFN-γ, and TNF-α response to K562 targets. Effector:target ratio is 5:1. NK cells were gated on CD3-CD56+ lymphocytes. Inset numbers are the percentages of CD107a-, IFN-γ- or TNF-α-positive NK cells within the indicated regions. (n=3). (FIG. 11E) TiNK cells and paired PB-NK cells from GBM patients were cultured in the presence or absence of galunisertib for 12 hours. The bar graphs summarize the mean fluorescence intensity (MFI) for their p-Smad⅔ expression. Paired t test was performed to determine statistical significance (n=3). (FIG. 11F) Specific lysis (^51Cr release assay) of K562 targets by NK cells. After 48 hours of culture alone (blue lines) or with GSCs, healthy donor NK cells were either left with GSCs (red lines), or purified and re-suspended in media for another 48 hours (black lines). NK cells were then collected and used for ^51Cr release assay (n=4). (FIG. 11G) Specific lysis (^51Cr release assay) of K562 targets by NK cells. After 48 hours of culture alone (blue lines) or with GSCs, healthy donor NK cells were either left with GSCs ([…]) or purified and cultured in SCGM media plus 5 ng/ml IL-15 with (black lines) or without galunisertib (10 μM) (gray lines) for […]. At the end of the culture period, their cytotoxicity was tested against k562 targets by ^51Cr release assay (n=4).
NK cells were cultured either with GSCs in a 1:1 ratio or alone for 48 hours. After 48 hours of co-incubation, NK cells were then either purified again by bead selection and resuspended in SCGM media or remained in culture with GSCs for an additional 48 hours and then used for ^51Cr release assay. In a second assay, after reselection, NK cells were cultured for another 5 days in SCGM in the presence of 5 ng/ml IL-15 with or without 10 μM galunisertib before use for ^51Cr release assay.

c1ccc(-c2nn3c(c2-c2ccnc4cc(OCCN5CCOCC5)ccc24)CCC3)nc1 [LY2109761]
p-Smad⅔ expression (MFI) in NK cells co-cultured with GSCs [1]: prevented GSCs from activating the TGF-β1 Smad⅔ signaling pathway in NK cells
GSC-induced NK cell dysfunction: natural cytotoxicity against GSC targets (GSC targets): preserving the natural cytotoxicity of NK cells against K562 or GSC targets
NK cell function (CD107a, IFN-γ, TNF-α response to K562), NK cells without GSCs (K562 targets; NK cells alone, inhibitor 10 μM): neither inhibitor affected NK cell function

O=C(O)[C@@H](Cc1ccccc1)NS(=O)(=O)c1ccc(-c2ccccc2)cc1 [MMP 2/9 inhibitor]
p-Smad⅔ levels in NK cells with MMP 2/9 inhibitor ([1]; NK cells with or without GSCs, inhibitor 1 μM): decreased p-Smad⅔ levels
NK cell function in cultures lacking GSCs (K562 targets; MMP 2/9 inhibitor 1 μM): did not affect NK cell function in cultures lacking GSCs

CC(C)[C@H]1C(=O)N[C@@H](CCCN=C(N)N)C(=O)NCC(=O)N[C@@H](CC(=O)O)C(=O)N[C@H](Cc2ccccc2)C(=O)N1C [cilengitide]
soluble TGF-β1 levels in supernatant (soluble TGF-β1): significantly decreased levels of soluble TGF-β1; also recorded: decreased TGF-β production
p-Smad⅔ expression (MFI) in NK cells co-cultured with GSCs [1]: significantly decreased; also recorded: diminished Smad⅔ phosphorylation
tumor bioluminescence (BLI), first experiment (patient-derived GSCs; NK cells intratumorally every 7 days for 11 weeks, galunisertib oral 5 times a week, cilengitide i.p. three times a week): tumor bioluminescence rapidly increased
NK-mediated GBM killing / efficacy in PDX model of GBM (summary statements) (patient-derived GSCs; mouse, in vivo): enhances NK-mediated GBM killing in vivo
surface marker expression on TiNKs harvested after sacrifice [2]: protects NK cells from TGF-β induced inhibitory phenotype in vivo

IL-15: activating cytokine
reversal of GSC-induced dysfunction of HC-NK cells ([3]; NK cells purified after 48 hours with GSCs, then IL-15 5 ng/ml with or without galunisertib 10 μM): did not reverse the dysfunction of HC-NK cells induced by GSCs
restoration of TiNK function (specific lysis of K562; CD107, IFN-γ, TNF-α) ([3]; TiNKs cultured 24 hours, galunisertib 10 μM or IL-15 5 ng/ml): failed to inactivate the TGF-β1 Smad⅔ signaling pathway and restore NK cell dysfunction
TGF-β1 Smad⅔ signaling in TiNKs ([3]; TiNKs from GBM patients cultured ex vivo, galunisertib 12 hours or IL-15): failed to inactivate the TGF-β1 Smad⅔ signaling pathway
